Measurements as given in PubChem BioAssay (NCI).
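Protocol summary: plate cells (96-well), add compound at 5 concentrations, incubate 48 h, interpolate endpoints linearly. At the TGI there is no net growth.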

Legend:
Experiment in all cases: NCI-60 cell line screen, 48 h
A549 NSCLC = test system: A549 NSCLC
NCI-H23 lung = test system: NCI-H23 lung
SR leukemia = test system: SR leukemia
PC-3 prostate = test system: PC-3 prostate
SF-268 CNS = test system: SF-268 CNS
SK-MEL-5 melanoma = test system: SK-MEL-5 melanoma
UACC-257 melanoma = test system: UACC-257 melanoma
IGROV1 ovarian = test system: IGROV1 ovarian
RPMI-8226 leukemia = test system: RPMI-8226 leukemia
HL-60(TB) leukemia = test system: HL-60(TB) leukemia
COLO 205 colon = test system: COLO 205 colon
LOX IMVI melanoma = test system: LOX IMVI melanoma
EKVX NSCLC = test system: EKVX NSCLC
SW-620 colon = test system: SW-620 colon
MCF7 breast = test system: MCF7 breast
RXF 393 renal = test system: RXF 393 renal
HCT-15 colon = test system: HCT-15 colon
MALME-3M melanoma = test system: MALME-3M melanoma
SK-MEL-28 melanoma = test system: SK-MEL-28 melanoma
SK-OV-3 ovarian = test system: SK-OV-3 ovarian
K-562 leukemia = test system: K-562 leukemia
T-47D breast = test system: T-47D breast
MOLT-4 leukemia = test system: MOLT-4 leukemia
MDA-MB-435 = test system: MDA-MB-435
HOP-92 NSCLC = test system: HOP-92 NSCLC
SNB-75 CNS = test system: SNB-75 CNS
HCC-2998 colon = test system: HCC-2998 colon
ACHN renal = test system: ACHN renal
BT-549 breast = test system: BT-549 breast
DU-145 prostate = test system: DU-145 prostate
NCI-H522 lung = test system: NCI-H522 lung
786-0 renal = test system: 786-0 renal
KM12 colon = test system: KM12 colon
HCT-116 colon = test system: HCT-116 colon
M14 melanoma = test system: M14 melanoma
OVCAR-8 ovarian = test system: OVCAR-8 ovarian
NCI-H460 lung = test system: NCI-H460 lung
U251 CNS = test system: U251 CNS
MDA-MB-231 breast = test system: MDA-MB-231 breast
SF-295 CNS = test system: SF-295 CNS
HOP-62 NSCLC = test system: HOP-62 NSCLC
SK-MEL-2 melanoma = test system: SK-MEL-2 melanoma
MDA-N = test system: MDA-N
HS 578T breast = test system: HS 578T breast
SN12C renal = test system: SN12C renal
SNB-19 CNS = test system: SNB-19 CNS
CAKI-1 renal = test system: CAKI-1 renal
OVCAR-5 ovarian = test system: OVCAR-5 ovarian
HT29 colon = test system: HT29 colon
UO-31 renal = test system: UO-31 renal
CCRF-CEM leukemia = test system: CCRF-CEM leukemia
NCI/ADR-RES ovarian = test system: NCI/ADR-RES ovarian
OVCAR-3 ovarian = test system: OVCAR-3 ovarian
NCI-H226 lung = test system: NCI-H226 lung
UACC-62 melanoma = test system: UACC-62 melanoma
SF-539 CNS = test system: SF-539 CNS
OVCAR-4 ovarian = test system: OVCAR-4 ovarian
TK-10 renal = test system: TK-10 renal

CC(=O)OCC1OC(NC(=S)CCSc2nc3ccccc3c(=O)n2-c2ccccc2)C(OC(C)=O)C(OC(C)=O)C1OC(C)=O (stereo not given)
TGI (A549 NSCLC): > 100 µM
TGI (NCI-H23 lung): > 100 µM
TGI (SR leukemia): > 100 µM
TGI (PC-3 prostate): > 100 µM
TGI (SF-268 CNS): > 100 µM
TGI (SK-MEL-5 melanoma): > 100 µM
TGI (UACC-257 melanoma): > 100 µM
TGI (IGROV1 ovarian): 25.1 µM
TGI (RPMI-8226 leukemia): > 100 µM
TGI (HL-60(TB) leukemia): 88.1 µM
TGI (COLO 205 colon): > 100 µM
TGI (LOX IMVI melanoma): > 100 µM
TGI (EKVX NSCLC): > 100 µM
TGI (SW-620 colon): > 100 µM
TGI (MCF7 breast): > 100 µM
TGI (RXF 393 renal): 58.2 µM
TGI (HCT-15 colon): > 100 µM
TGI (MALME-3M melanoma): > 100 µM
TGI (SK-MEL-28 melanoma): > 100 µM
TGI (SK-OV-3 ovarian): > 100 µM
TGI (K-562 leukemia): > 100 µM
TGI (T-47D breast): > 100 µM
TGI (MOLT-4 leukemia): > 100 µM
TGI (MDA-MB-435): > 100 µM
TGI (HOP-92 NSCLC): 98.1 µM
TGI (SNB-75 CNS): 60.7 µM
TGI (HCC-2998 colon): > 100 µM
TGI (ACHN renal): > 100 µM
TGI (BT-549 breast): > 100 µM
TGI (DU-145 prostate): > 100 µM
TGI (NCI-H522 lung): > 100 µM
TGI (786-0 renal): > 100 µM
TGI (KM12 colon): > 100 µM
TGI (HCT-116 colon): > 100 µM
TGI (M14 melanoma): > 100 µM
TGI (OVCAR-8 ovarian): > 100 µM
TGI (NCI-H460 lung): > 100 µM
TGI (U251 CNS): > 100 µM
TGI (MDA-MB-231 breast): > 100 µM
TGI (SF-295 CNS): > 100 µM
TGI (HOP-62 NSCLC): > 100 µM
TGI (SK-MEL-2 melanoma): 76.3 µM
TGI (MDA-N): > 100 µM
TGI (HS 578T breast): > 100 µM
TGI (SN12C renal): > 100 µM
TGI (SNB-19 CNS): > 100 µM
TGI (CAKI-1 renal): > 100 µM
TGI (OVCAR-5 ovarian): > 100 µM
TGI (HT29 colon): > 100 µM
TGI (UO-31 renal): > 100 µM
TGI (CCRF-CEM leukemia): > 100 µM
TGI (NCI/ADR-RES ovarian): > 100 µM
TGI (OVCAR-3 ovarian): > 100 µM
TGI (NCI-H226 lung): > 100 µM
TGI (UACC-62 melanoma): > 100 µM
TGI (SF-539 CNS): 34 µM

Clc1ccc(C(c2ccc(Cl)cc2)c2cncnc2)cc1
TGI (A549 NSCLC): 38.5 µM
TGI (NCI-H23 lung): 36.9 µM
TGI (SR leukemia): > 100 µM
TGI (PC-3 prostate): 27.3 µM
TGI (SF-268 CNS): 33.8 µM
TGI (SK-MEL-5 melanoma): 25.9 µM
TGI (OVCAR-4 ovarian): 29 µM
TGI (UACC-257 melanoma): 49.1 µM
TGI (IGROV1 ovarian): 33.8 µM
TGI (RPMI-8226 leukemia): > 100 µM
TGI (TK-10 renal): 30.8 µM
TGI (HL-60(TB) leukemia): > 100 µM
TGI (COLO 205 colon): 33.2 µM
TGI (LOX IMVI melanoma): 31.2 µM
TGI (MCF7 breast): 30 µM
TGI (RXF 393 renal): 25.2 µM
TGI (HCT-15 colon): 39.1 µM
TGI (MALME-3M melanoma): 36.1 µM
TGI (SK-MEL-28 melanoma): 33.4 µM
TGI (SK-OV-3 ovarian): 33.4 µM
TGI (K-562 leukemia): > 100 µM
TGI (T-47D breast): 32.3 µM
TGI (MOLT-4 leukemia): 67.6 µM
TGI (MDA-MB-435): 28 µM
TGI (ACHN renal): 36.4 µM
TGI (BT-549 breast): 27.4 µM
TGI (DU-145 prostate): 31.3 µM
TGI (NCI-H522 lung): 33.3 µM
TGI (786-0 renal): 33 µM
TGI (KM12 colon): 37 µM
TGI (HCT-116 colon): 26.9 µM
TGI (M14 melanoma): 30 µM
TGI (OVCAR-8 ovarian): 42.5 µM
TGI (NCI-H460 lung): 31.4 µM
TGI (U251 CNS): 32.1 µM
TGI (MDA-MB-231 breast): 34 µM
TGI (SF-295 CNS): 35.6 µM
TGI (HOP-62 NSCLC): 31.3 µM
TGI (MDA-N): 29.3 µM
TGI (HS 578T breast): 39.9 µM
TGI (SN12C renal): 36.6 µM
TGI (SNB-19 CNS): 33 µM
TGI (CAKI-1 renal): 39.7 µM
TGI (OVCAR-5 ovarian): 29.5 µM
TGI (HT29 colon): 28.3 µM
TGI (UO-31 renal): 25.1 µM
TGI (CCRF-CEM leukemia): 44.8 µM
TGI (NCI/ADR-RES ovarian): 44.4 µM
TGI (OVCAR-3 ovarian): 27.9 µM
TGI (UACC-62 melanoma): 28.7 µM

COC(=O)C(C)(Cc1ccc2c(c1)nnn2C(C)=O)NC(C)=O (stereo not given)
TGI (A549 NSCLC): > 100 µM
TGI (NCI-H23 lung): > 100 µM
TGI (SR leukemia): > 100 µM
TGI (PC-3 prostate): > 100 µM
TGI (SF-268 CNS): > 100 µM
TGI (SK-MEL-5 melanoma): > 100 µM
TGI (OVCAR-4 ovarian): > 100 µM
TGI (UACC-257 melanoma): > 100 µM
TGI (IGROV1 ovarian): > 100 µM
TGI (RPMI-8226 leukemia): > 100 µM
TGI (TK-10 renal): > 100 µM
TGI (HL-60(TB) leukemia): > 100 µM
TGI (COLO 205 colon): > 100 µM
TGI (LOX IMVI melanoma): > 100 µM
TGI (EKVX NSCLC): > 100 µM
TGI (SW-620 colon): > 100 µM
TGI (MCF7 breast): > 100 µM
TGI (RXF 393 renal): > 100 µM
TGI (HCT-15 colon): > 100 µM
TGI (MALME-3M melanoma): > 100 µM
TGI (SK-MEL-28 melanoma): > 100 µM
TGI (SK-OV-3 ovarian): > 100 µM
TGI (K-562 leukemia): > 100 µM
TGI (T-47D breast): > 100 µM
TGI (MOLT-4 leukemia): > 100 µM
TGI (MDA-MB-435): > 100 µM
TGI (HOP-92 NSCLC): > 100 µM
TGI (SNB-75 CNS): > 100 µM
TGI (HCC-2998 colon): > 100 µM
TGI (ACHN renal): > 100 µM
TGI (BT-549 breast): > 100 µM
TGI (DU-145 prostate): > 100 µM
TGI (NCI-H522 lung): > 100 µM
TGI (786-0 renal): > 100 µM
TGI (KM12 colon): > 100 µM
TGI (HCT-116 colon): > 100 µM
TGI (M14 melanoma): > 100 µM
TGI (OVCAR-8 ovarian): > 100 µM
TGI (NCI-H460 lung): > 100 µM
TGI (MDA-MB-231 breast): > 100 µM
TGI (SF-295 CNS): > 100 µM
TGI (SK-MEL-2 melanoma): > 100 µM
TGI (MDA-N): > 100 µM
TGI (HS 578T breast): > 100 µM
TGI (SNB-19 CNS): > 100 µM
TGI (CAKI-1 renal): > 100 µM
TGI (OVCAR-5 ovarian): > 100 µM
TGI (HT29 colon): > 100 µM
TGI (UO-31 renal): > 100 µM
TGI (CCRF-CEM leukemia): > 100 µM
TGI (NCI/ADR-RES ovarian): > 100 µM
TGI (OVCAR-3 ovarian): > 100 µM
TGI (NCI-H226 lung): > 100 µM
TGI (UACC-62 melanoma): > 100 µM
